Patent US20050197350A1, “Novel quinoline, tetrahydroquinazoline, and pyrimidine derivatives and methods of treatment related to the use thereof” (TAISHO PHARMACEUTICAL CO., LTD., priority 2003, published 2005)
Structures can show the parent of a compound that is named as a salt.

molecular target: MCH receptor (Homo sapiens, UniProt Q99705); assay: High throughput functional screening FLIPR/FDSS6000 (intracellular Ca2+ evoked by MCH); assay type: cell-based; details: FLIPR/FDSS, antagonist activity vs 50 nM MCH; class by percent of control at 10^−7 M or IC50; read-out: class
Excerpt: High Throughput Functional Screening: FLIPR™
This assay utilized a non-endogenous, constitutively active version of the MCH receptor.
The concentration of free Ca^2+ in the cytosol of any cell is extremely low, whereas its concentration in the extracellular fluid and endoplasmic reticulum (ER) is very high. Thus, there is a large gradient tending to drive Ca^2+ into the cytosol across both the plasma membrane and ER. The FLIPR™ and FDSS6000™ systems (Molecular Devices Corporation, […] Photonics K.K.) are designed to perform functional cell-based assays, such as the measurement of intracellular calcium for high-throughput screening. The measurement of fluorescent is associated with calcium release upon activation of the Gq-coupled receptors.
Fluorometric Imaging Plate Reader system was used to allow for rapid, kinetic measurements of intracellular fluorescence in 96 well microplates (or 384 well microplates). Simultaneous measurements of fluorescence in all wells can be made by FLIPR or FDSS6000™ every second with high sensitivity and precision. These systems are ideal for measuring cell-based functional assays such as monitoring the intracellular calcium fluxes that occur within seconds after activation of the Gq coupled receptor.
Briefly, the cells are seeded into 96 well at 5.5×10^4 cells/well with complete culture media (Dulbecco's Modified Eagle Medium with 10% fetal bovine serum, 2 mM L-glutamine, 1 mM sodium pyruvate and 0.5 mg/ml G418, pH 7.4) for the assay next day. On the day of assay, the media is removed and the cells are incubated with 100 μl of loading buffer (4 μM Fluo4-AM in complete culture media containing 2.5 mM Probenicid, 0.5 mg/ml and 0.2% bovine serum albumin) in 5% CO2 incubator at 37° C. for 1 hr. The loading buffer is removed, and the cells are washed with wash buffer (Hank's Balanced Salt Solution containing 2.5 mM Probenicid, 20 mM HEPES, 0.5 mg/ml and 0.2% bovine serum albumin, pH 7.4)). One hundred fifty μl of wash buffer containing various concentrations of test compound is added to the cells, and the cells are incubated in 5% CO2 incubator at 37° C. for 30 min. […] 530 nm for 290 second. When antagonist activity of compound is tested, 50 nM of MCH is used.
Use of FLIPR™ and FDSS6000™ can be accomplished by following manufacturer's instruction (Molecular Device Corporation and […] Photonics K.K.).

Row | IC50 | SMILES
1 | > 200 nM | Cc1cnc(N[C@H]2CC[C@@H](C(=O)N[C@@H](C)c3cc(C(F)(F)F)cc(C(F)(F)F)c3)CC2)nc1N(C)C [Example 3293, cis-N-{(1S)-1-[3,5-bis(trifluoromethyl)phenyl]ethyl}-4-{[4-(dimethylamino)-5-methylpyrimidin-2-yl]amino}cyclohexanecarboxamide]
2 | 50 to 200 nM | Cc1cc(N(C)C)nc(N[C@H]2CC[C@@H](NC(=O)c3cccnc3S(=O)(=O)c3ccccc3Cl)CC2)n1 [Example 3369, 2-[(2-chlorophenyl)sulfonyl]-N-(cis-4-{[4-(dimethylamino)-6-methylpyrimidin-2-yl]amino}cyclohexyl)nicotinamide]
3 | 50 to 200 nM | Cc1cc(N(C)C)nc(N[C@H]2CC[C@@H](NC(=O)c3cccnc3S(=O)(=O)c3ccccc3C)CC2)n1 [Example 3375, N-(cis-4-{[4-(dimethylamino)-6-methylpyrimidin-2-yl]amino}cyclohexyl)-2-[(2-methylphenyl)sulfonyl]nicotinamide]
4 | 50 to 200 nM | Cc1cnc(N[C@H]2CC[C@@H](NCC(=O)c3ccc(Cl)cc3)CC2)nc1N(C)C [Example 3260, 1-(4-chlorophenyl)-2-[(cis-4-{[4-(dimethylamino)-5-methylpyrimidin-2-yl]amino}cyclohexyl)amino]ethanone]
5 | > 200 nM | Cc1cnc(NC2CCC(C(=O)N[C@H](C)c3ccccc3C(F)(F)F)CC2)nc1N(C)C (stereo partly drawn) [Example 3301, 4-{[4-(dimethylamino)-5-methylpyrimidin-2-yl]amino}-N-{(1R)-1-[2-(trifluoromethyl)phenyl]ethyl}cyclohexanecarboxamide]
6 | 50 to 200 nM | Cc1ccc(S(=O)(=O)c2ncccc2C(=O)N[C@H]2CC[C@@H](Nc3ncc(C)c(N(C)C)n3)CC2)cc1 [Example 3288, N-(cis-4-{[4-(dimethylamino)-5-methylpyrimidin-2-yl]amino}cyclohexyl)-2-[(4-methylphenyl)sulfonyl]nicotinamide]
7 | < 50 nM | Cc1cnc(N[C@H]2CC[C@@H](NC(=O)NC(C)(C)c3ccc(Cl)cc3)CC2)nc1N(C)C [Example 3264, N-[1-(4-chlorophenyl)-1-methylethyl]-N′-(cis-4-{[4-(dimethylamino)-5-methylpyrimidin-2-yl]amino}cyclohexyl)urea]
8 | < 50 nM | Cc1cnc(N[C@H]2CC[C@@H](NC(=O)N(C)C(C)(C)c3ccc(Cl)cc3)CC2)nc1N(C)C [Example 3269, N-[1-(4-chlorophenyl)-1-methylethyl]-N′-(cis-4-{[4-(dimethylamino)-5-methylpyrimidin-2-yl]amino}cyclohexyl)-N-methylurea]
9 | > 200 nM | Cc1cc(N(C)C)nc(N[C@H]2CC[C@@H](NC(=O)c3cccnc3S(=O)(=O)c3ccc(Cl)cc3)CC2)n1 [Example 3371, 2-[(4-chlorophenyl)sulfonyl]-N-(cis-4-{[4-(dimethylamino)-6-methylpyrimidin-2-yl]amino}cyclohexyl)nicotinamide]
10 | < 50 nM | Cc1cnc(N[C@H]2CC[C@@H](NC(=O)NC3(c4ccc(Cl)cc4)CC3)CC2)nc1N(C)C [Example 3266, N-[1-(4-chlorophenyl)cyclopropyl]-N′-(cis-4-{[4-(dimethylamino)-5-methylpyrimidin-2-yl]amino}cyclohexyl)urea]
11 | > 200 nM | Cc1cnc(N[C@H]2CC[C@@H](C(=O)N[C@H](C)c3ccccc3F)CC2)nc1N(C)C [Example 3294, cis-4-{[4-(dimethylamino)-5-methylpyrimidin-2-yl]aminol}-N-[(1R)-1-(2-fluorophenyl)ethyl]cyclohexanecarboxamide]

same assay, conditions: FLIPR/FDSS, antagonist activity vs 50 nM MCH; class by percent of control at 10^−7 M or IC50; table after the classification; read-out: class

Row | IC50 | SMILES
12 | < 50 nM | CN(C)c1ccnc(N[C@H]2CC[C@@H](NC(=O)c3cc(C(C)(C)C)c(O)c(C(C)(C)C)c3)CC2)n1 [Example 3217, 3,5-Di-tert-butyl-N-[cis-4-(4-dimethylamino-pyrimidin-2-ylamino)-cyclohexyl]-4-hydroxy-benzamide hydrochloride]
13 | 50 to 200 nM | Cc1cc(N[C@H]2CC[C@@H](NC(=O)c3ccccc3F)CC2)nc2ccccc12 [Example 3171, 2-Fluoro-N-[cis-4-(4-methyl-quinolin-2-ylamino)-cyclohexyl]-benzamide hydrochloride]
14 | < 50 nM | CN(C)c1nc(N[C@H]2CC[C@@H](NC(=O)c3ccc(F)c(Cl)c3)CC2)nc2c1CCCC2 [Example 3108, 3-Chloro-N-[cis-4-(4-dimethylamino-5,6,7,8-tetrahydro-quinazolin-2-ylamino)-cyclohexyl]-4-fluoro-benzamide hydrochloride]
15 | 50 to 200 nM | O=C(CNc1ccc(Cl)c(Cl)c1)N[C@H]1CC[C@@H](Nc2ccc3ccccc3n2)CC1 [Example 3067, 2-(3,4-Dichloro-phenylamino)-N-[cis-4-(quinolin-2-ylamino)-cyclohexyl]-acetamide dihydrochloride]
16 | 50 to 200 nM | CN(C)c1ccnc(N[C@H]2CC[C@@H](NC(=O)c3cccnc3Oc3ccccc3)CC2)n1 [Example 3129, N-[cis-4-(4-Dimethylamino-pyrimidin-2-ylamino)-cyclohexyl]-2-phenoxy-nicotinamide hydrochloride]
17 | < 50 nM | Cc1cc(N[C@H]2CC[C@@H](NC(=O)c3ccc(Cl)nc3)CC2)nc2ccccc12 [Example 3175, 6-Chloro-N-[cis-4-(4-methyl-quinolin-2-ylamino)-cyclohexyl]-nicotinamide hydrochloride]
18 | 50 to 200 nM | O=C(N[C@H]1CC[C@@H](Nc2ccc3ccccc3n2)CC1)c1cccc(OC(F)(F)F)c1 [Example 3149, N-[cis-4-(Quinolin-2-ylamino)-cyclohexyl]-3-trifluoromethoxy-benzamide hydrochloride]
19 | < 50 nM | Cc1cc(N[C@H]2CC[C@@H](NC(=O)c3cccc(Br)c3)CC2)nc2ccccc12 [Example 3086, 3-Bromo-N-[cis-4-(4-methyl-quinolin-2-ylamino)-cyclohexyl]-benzamide hydrochloride]
20 | 50 to 200 nM | CN(C)c1nc(N[C@H]2CC[C@@H](NC(=O)c3ccc(F)c(F)c3)CC2)ncc1-c1ccccc1 [Example 3138, N-[cis-4-(4-Dimethylamino-5-phenyl-pyrimidin-2-ylamino)-cyclohexyl]-3,4-difluoro-benzamide hydrochloride]
21 | 50 to 200 nM | CN(C)c1ccnc(N[C@H]2CC[C@@H](NC(=O)c3ccc(F)cc3)CC2)n1 [Example 3214, N-[cis-4-(4-Dimethylamino-pyrimidin-2-ylamino)-cyclohexyl]-4-fluoro-benzamide hydrochloride]
22 | > 200 nM | CN(C)c1nc(N[C@H]2CC[C@@H](NC(=O)c3cccnc3Oc3ccccc3)CC2)ncc1-c1ccccc1 [Example 3136, N-[cis-4-(4-Dimethylamino-5-phenyl-pyrimidin-2-ylamino)-cyclohexyl]-2-phenoxy-nicotinamide hydrochloride]
23 | 50 to 200 nM | COC(=O)c1cccc(C(=O)N[C@H]2CC[C@@H](Nc3ccc4ccccc4n3)CC2)c1 [Example 3147, N-[cis-4-(Quinolin-2-ylamino)-cyclohexyl]-isophthalamic acid methyl ester hydrochloride]
24 | 50 to 200 nM | Cc1cc(N[C@H]2CC[C@@H](NC(=O)c3cccc(C(N)=O)c3)CC2)nc2ccccc12 [Example 3178, N-[cis-4-(4-Methylquinolin-2-ylamino)-cyclohexyl]-isophthalamide hydrochloride]
25 | < 50 nM | CN(C)c1nc(N[C@H]2CC[C@@H](NC(=O)c3ccc(F)c(F)c3)CC2)nc2c1CCCC2 [Example 3192, N-[cis-4-(4-dimethylamino-5,6,7,8-tetrahydro-quinazolin-2-ylamino)-cyclohexyl]-3,4-difluoro-benzamide hydrochloride]
26 | < 50 nM | CN(C)c1ccnc(N[C@H]2CC[C@@H](NC(=O)c3ccc(Cl)c(F)c3)CC2)n1 [Example 3207, 4-Chloro-N-[cis-4-(4-dimethylamino-pyrimidin-2-ylamino)-cyclohexyl]-3-fluoro-benzamide hydrochloride]
27 | < 50 nM | O=C(N[C@H]1CC[C@@H](Nc2ccc3ccccc3n2)CC1)c1cccc(C(F)(F)F)c1 [Example 3050, N-[cis-4-(Quinolin-2-ylamino)-cyclohexyl]-3-trifluoromethyl-benzamide hydrochloride]
28 | 50 to 200 nM | Cc1cc(N[C@H]2CC[C@@H](NC(=O)c3cc(C(F)(F)F)cc(C(F)(F)F)c3)CC2)nc2ccccc12 [Example 3157, N-[cis-4-(4-Methyl-quinolin-2-ylamino)-cyclohexyl]-3,5-bis-trifluoromethyl-benzamide hydrochloride]
